Laboratory results: US20240382484A1, “COMPOSITION FOR TREATING, PREVENTING, OR AMELIORATING MELANOMA AND METHOD THEREOF” (Thomas Jefferson University, priority 2021, published 2024)

Legend:
[1] = tested on: human NRAS mutant melanoma cell lines; experiment: 72 hours drug combination, cell density by IncuCyte, synergy by Combenefit with Loewe method; type: cell-based; conditions: WM1361A, WM1366, SK-MEL-30 and SK-MEL-173, 72 hours
Method: FIG. 2A: NRAS mutant melanoma cell line WM1361A, WM1366, SK-MEL-30, SK-MEL-173, 1007 and 1014 were treated for 72 hours as indicated with GSK2334470 and trametinib and analyzed for cell density by IncuCyte. Synergy graphs were generated utilizing Combenefit Software with Loewe method. Data are represented as the mean from three biological independent experiments. FIG. 2B: WM1361A, WM1366, SK-MEL-30 or SK-MEL-173 cells were treated with GSK2334470 (PDPK1i) and trametinib (tram) alone or in combination (comb) at the indicated concentrations for 7 days. Cell growth was monitored by IncuCyte every 2 hours. Media were replaced twice with drugs during culture. Data are represented as the mean±SEM of three biological independent experiments. p values were calculated with an unpaired two-tailed t test. n.s., not significant.
FIG. 10A-10B: Cas9 expressed clone WM1361A-iCas9 #1 (FIG. 10A), and WM1366-iCas9 #11 (FIG. 10B) cells were treated for 72 hours as indicated with GSK2334470 and trametinib and analyzed for cell density by IncuCyte. Synergy graphs were generated utilizing Combenefit Software with Loewe method. Data are represented as the mean from three biological independent experiments.
FIG. 11A: WM1361A, WM1366, SK-MEL-30 and SK-MEL-173 cells were treated for 72 hours as indicated with GSK2334470 and PD0325901 and analyzed for cell density by IncuCyte. Synergy graphs were generated utilizing Combenefit Software with Loewe method. Data are represented as the mean from three biological independent experiments. FIG. 11B: WM1361A, WM1366, SK-MEL-30 or SK-MEL-173 cells were treated with GSK2334470 (PDPK1i) and PD0325901 (PD901) alone or in combination (Comb) at the indicated concentrations for 7 days. Cell growth was monitored by IncuCyte every 2 hours. Data are represented as the mean±SEM of three biological independent experiments. p values were calculated with an unpaired two-tailed t test. n.s., not significant.
FIG. 16A: WM1361A and WM1366 cells were treated for 72 hours with indicated inhibitors and analyzed for cell density by IncuCyte. Synergy graphs were generated utilizing Combenefit Software with Loewe method. Data are represented as the mean from three biological independent experiments.
To further analyze synergistic effects, the growth response of a panel of several NRAS mutant cells to titrated PDPK1i (GSK2334470) and MEKi (trametinib) combinations was assessed.
Human WM1361A and WM1366 melanoma cell lines were cultured in MCDB153 (Sigma) with 2% FBS, 20% Leibowitz L-15 medium, and 5 μg/mL insulin (WM medium). Human SK-MEL-30 and SK-MEL-173 melanoma cell lines were cultured in RPMI-1640 with 10% FBS. […] All cells were cultured at 37° C. in a humidified atmosphere containing 5% CO2. […] Cell lines were STR analyzed, confirmed for NRAS/Nras mutation, and tested to be mycoplasma-free during experiments. For cell proliferation and drug response, cells were monitored by IncuCyte® (Essen Bioscience, Ann Arbor, MI) every 2 hours.

1014 tumors = experiment: Flow cytometry of tumor-infiltrating immune cells from 1014 tumors; type: in vivo, mouse; conditions: day 7 post treatment, over the control group
WM1366-iCas9 xenograft = WM1366-iCas9 xenograft tumor growth in Nu/J mice; type: in vivo, mouse; conditions: trametinib-containing chow (0.3 ppm) compared with control chow
Text: FIG. 13A-13D: PDPK1 depletion delayed xenograft tumor growth in Nu/J mice, in accordance with some embodiments. FIG. 13A, Tumor growth of WM1366-iCas9 and PDPK1 knockout (KO) cells, represented as the change in volume (mm^3) over time, was shown from the start of injection to the start of treatment as indicated. Cyan dots indicated sacrifice of mice due to lack of visible tumors. The dotted line at 50 mm^3 indicates the size at which trametinib treatment was started. FIG. 13B: Time for tumor growth of WM1366-iCas9 cells to the start of treatment in male and female mice. Lines represent median number of days from the time of tumor implantation to the treatment size of 50 mm^3. The mouse without tumor formation was monitored for 105 days. p values were calculated with an unpaired two-tailed t test. […] FIG. 13D: Kaplan-Meier survival curves of WM1366-iCas9 tumor-bearing in female or male mice as indicated. p values were calculated by GraphPad Prism 9.0 with Log-rank (Mantel-Cox) test. n.s., not significant.
(§1) Animal experiments were performed at Thomas Jefferson University in a facility accredited by the Association for the Assessment and Accreditation of Laboratory Animal Care and were approved by the Institutional Animal Care and Use Committee (protocol #1052). […] Mouse weights were monitored once a week or three times per week during drug treatment. […]

SK-MEL-30 xenografts = experiment: SK-MEL-30 xenograft model in Nu/J mice; type: in vivo, mouse; conditions: trametinib chow and/or GSK2334470 100 mg/kg intraperitoneally every 3 days
Method: FIG. 4A-4B, In Nu/J mice, SK-MEL-30 tumor growth (FIG. 4A) represented as the change in volume (mm^3) over time and Kaplan-Meier survival curves (FIG. 4B) were shown from the start of treatment as indicated. Ctrl: control chow+mock injection (n=7), Tram: trametinib chow+mock injection (n=7), G4470: control chow+GSK2334470 injection (n=5), Comb: trametinib chow+GSK2334470 injection (n=7). Mice were injected and tumor volume was monitored every 3 days. Data are represented as the mean±SEM. The dotted line at 1000 mm^3 marks the experimental endpoint. p values were calculated by GraphPad Prism 9.0 with Log-rank (Mantel-Cox) test. n.s., not significant. […]
FIGS. 14A-14B: Sex disparities in SK-MEL-30 xenografts, in accordance with some embodiments. […] Mice were injected and tumor volume was monitored every 3 days. […] The dotted line at 1000 mm^3 marks the experimental endpoint. p values were calculated by GraphPad Prism 9.0 with Log-rank (Mantel-Cox) test. n.s., not significant.
as §1

Structure (SMILES)	synergistic inhibition of PDPK1i (GSK2334470) with PD0325901 [1]	frequency of CD8+ T cells within the CD45+ cell compartment (1014 tumors)	tumor growth (WM1366-iCas9 xenograft)	tumor growth (SK-MEL-30 xenografts)
O=C(NOC[C@H](O)CO)c1ccc(F)c(F)c1Nc1ccc(I)cc1F [PD0325901, (R)—N-(2,3-dihydroxypropoxy)-3,4-difluoro-2-((2-fluoro-4-iodophenyl)amino)benzamide]	broad synergistic effects	–	–	–
CC(=O)Nc1cccc(-n2c(=O)n(C3CC3)c(=O)c3c(Nc4ccc(I)cc4F)n(C)c(=O)c(C)c32)c1 [trametinib, N-(3-(3-cyclopropyl-5-((2-fluoro-4-iodophenyl)amino)-6,8-dimethyl-2,4,7-trioxo-3,4,6,7-tetrahydropyrido[4,3-d]pyrimidin-1(2H)-yl)phenyl)acetamide]	–	intermediate effect	delayed	suppressed tumor growth modestly
